The target in this experiment is PDE-5 (UniProt O76074). In words: In vitro PDE inhibitory activity against PDE5 (batch method or scintillation proximity assay). The experiment is classed as biochemical, human or rabbit. Particulars: representative preferred compounds. From the text: The compounds of the invention are inhibitors of cyclic guanylate monophosphate (cGMP)-specific phosphodiesterase type 5 (PDE-5 inhibitors).
In particular, cGMP-specific PDE5 and cGMP-inhibited cAMP PDE3 can be obtained from human corpus cavernosum tissue, human platelets or rabbit platelets; cGMP-stimulated PDE2 was obtained from human corpus cavernosum; calcium/calmodulin (Ca/CAM)-dependent PDE1 from human cardiac ventricle; cAMP-specific PDE4 from human skeletal muscle; and photoreceptor PDE6 from bovine retina. Phosphodiesterases 7-11 can be generated from full length human recombinant clones transfected into SF9 cells.
In summary, for the scintillation proximity assay the effect of PDE inhibitors was investigated by assaying a fixed amount of enzyme in the presence of varying inhibitor concentrations and low substrate, (cGMP or cAMP in a 3:1 ratio unlabelled to [^3H]-labeled at a concentration of ˜⅓ Km or less) such that IC50≅Kl. The final assay volume was made up to 100 μl with assay buffer [20 mM Tris-HCl pH 7.4, 5 mM MgCl2, 1 mg/ml bovine serum albumin]. Reactions were initiated with enzyme, incubated for 30-60 min at 30° C. to give <30% substrate turnover and terminated with 50 μl yttrium silicate SPA beads (containing 3 mM of the respective unlabelled cyclic nucleotide for PDEs 9 and 11).
Background: In a scintillation proximity assay essentially only radioactivity close to the scintillant gives light.

For the molecule `CCNc1nc(Nc2cc(C)ccn2)c2c(n1)c(C(=O)NC)nn2CCOCC` [Example 50, 1-(2-Ethoxyethyl)-5-(ethylamino)-N-methyl-7-(4-methylpyridin-2-ylamino)-1H-Pyrazolo[4,3-d]pyrimidine-3-carboxamide], it took 1.31 nM to reach half-maximal inhibition (IC50).

In the case of `CCNC(=O)c1nn(CCOCC)c2c(Nc3cc(C)ccn3)nc(N3CCN[C@H](C)C3)nc12` [Example 32], the IC50 was determined as 0.73 nM.

For the molecule `CCOCCn1nc(C(=O)NC)c2nc(N3CCN[C@H](C)C3)nc(Nc3cc(C)ccn3)c21` [Example 30, 1-(2-ethoxyethyl)-N-methyl-5-((3R)-3-methylpiperazin-1-yl)-7-(4-methylpyridin-2-yl-amino)-1H-pyrazolo[4,3-d]pyrimidine-3-carboxamide], the half-maximal inhibitory concentration (IC50) was 1.65 nM.

As to `CCOCCn1nc(C(=O)NCCOC)c2nc(N(C)C)nc(Nc3cc(C)ccn3)c21` [Example 19, 5-(dimethylamino)-1-(2-ethoxyethyl)-N-(2-methoxyethyl)-7-(4-methylpyridin-2-yl-amino)-1H-pyrazolo[4,3-d]pyrimidine-3-carboxamide], the IC50 was 0.09 nM.

As to `CCNc1nc(Nc2cc(C)ccn2)c2c(n1)c(C(=O)NCCOC)nn2CCOCC` [Example 60, 1-(2-ethoxyethyl)-5-(ethylamino)-N-(2-methoxyethyl)-7-(4-methylpyridin-2-ylamino)-1H-pyrazolo[4,3-d]pyrimidine-3-carboxamide], the IC50 is 0.57 nM.

In turn, `CCOCCn1nc(C(=O)NC)c2nc(N(C)[C@H]3CCN(C)C3)nc(Nc3cc(C)ccn3)c21` [Example 73, 1-(2-Ethoxyethyl)-N-methyl-5-[N-methyl-N-((3S)-1-methylpyrrolidin-3-yl)amino]-7-(4-methylpyridin-2-ylamino)-1H-pyrazolo[4,3-d]pyrimidine-3-carboxamide] gave an IC50 of 0.42 nM.

The molecule `CCNC(=O)c1nn(CCOCC)c2c(Nc3cc(C)ccn3)nc(NCC)nc12` [Example 8, 1-(2-ethoxyethyl)-N-ethyl-5-(ethylamino)-7-(4-methylpyridin-2-ylamino)-1H-pyrazolo[4,3-d]pyrimidine-3-carboxamide] returned an IC50 of 0.333 nM.

Regarding `CCOCCn1nc(C(=O)NCCN(C)C)c2nc(N(C)C)nc(Nc3cc(C)ccn3)c21` [Example 17, 5-(dimethylamino)-N-(2-(dimethylamino)ethyl)-1-(2-ethoxyethyl)-7-(4-methylpyridin-2-ylamino)-1H-pyrazolo[4,3-d]pyrimidine-3-carboxamide], the IC50 stood at 0.24 nM.

Consider `CCOCCn1nc(C(=O)NC)c2nc(N3CCN[C@H](C)C3)nc(NC3CCCCC3)c21` [Example 71, 7-(cyclohexylamino)-1-(2-ethoxyethyl)-N-methyl-5-((3R)-3-methylpiperazin-1-yl)-1H-pyrazolo[4,3-d]pyrimidine-3-carboxamide], for which inhibition was half-maximal at 2.95 nM (IC50).

With `CCOCCn1nc(C(=O)NCCO)c2nc(N(C)C)nc(Nc3cc(C)ccn3)c21` [Example 58, 5-(dimethylamino)-1-(2-ethoxyethyl)-N-(2-hydroxyethyl)-7-(4-methylpyridin-2-yl-amino)-1H-pyrazolo[4,3-d]pyrimidine-3-carboxamide], the half-inhibitory concentration (IC50) was 0.13 nM.

`CCOCCn1nc(C(=O)NCCNC)c2nc(N(C)C)nc(Nc3cc(C)ccn3)c21` [Example 16] had a half-maximal inhibitory concentration (IC50) of 0.4 nM.

The molecule `CCOCCn1nc(C(=O)NCCOC)c2nc(NC)nc(Nc3cc(C)ccn3)c21` [Example 56, 1-(2-ethoxyethyl)-N-(2-methoxyethyl)-5-(methylamino)-7-(4-methylpyridin-2-ylamino)-1H-pyrazolo[4,3-d]pyrimidine-3-carboxamide] had a half-inhibitory concentration (IC50) of 1.63 nM.

Take `CCOCCn1nc(C(=O)NC)c2nc(NCCOC)nc(Nc3cc(C)ccn3)c21` [Example 62, 1-(2-ethoxyethyl)-5-((2-methoxyethyl)amino)-N-methyl-7-(4-methylpyridin-2-ylamino)-1H-pyrazolo[4,3-d]pyrimidine-3-carboxamide]: it took 1.88 nM to reach half-maximal inhibition (IC50).

`CCOCCn1nc(C(=O)NC)c2nc(N(C)C)nc(Nc3cc(C)ccn3)c21` [Example 14, 5-(dimethylamino)-1-(2-ethoxyethyl)-N-methyl-7-(4-methylpyridin-2-ylamino)-1H-pyrazolo[4,3-d]pyrimidine-3-carboxamide]: the IC50 came out at 0.26 nM.

`CCOCCn1nc(C(=O)NC2CCNCC2)c2nc(N(C)C)nc(Nc3cc(C)ccn3)c21` [Example 18] returned a concentration for half-maximal inhibition (IC50) of 0.06 nM.

Consider `CCOCCn1nc(C(=O)NCCC(=O)O)c2nc(N(C)C)nc(Nc3cc(C)ccn3)c21` [Example 23, 3-{[5-(dimethylamino)-1-(2-ethoxyethyl)-7-(4-methylpyridin-2-ylamino)-1H-pyrazolo[4,3-d]pyrimidine-3-carbonyl]amino}propionic acid], for which the IC50 stood at 0.04 nM.

`CCOCCn1nc(C(=O)N[C@H](C)C(=O)O)c2nc(N(C)C)nc(Nc3cc(C)ccn3)c21` [Example 22, (2R)-2-{[5-(dimethylamino)-1-(2-ethoxyethyl)-7-(4-methylpyridin-2-ylamino)-1H-pyrazolo[4,3-d]pyrimidine-3-carbonyl]amino}propionic acid] returned an IC50 of 0.02 nM.

`CCOCCn1nc(C(=O)NC)c2nc(N(C)CCO)nc(Nc3cc(C)ccn3)c21` [Example 61] came in with a half-inhibitory concentration (IC50) of 0.12 nM.

The IC50 is the point on the concentration scale where inhibition reaches its midpoint. Low values mean inhibition by little substance, high ones a need for much substance.
